From US20030125311A1, “Compounds capable of binding with the cytoskeleton” (priority 2002, published 2003) come the findings set out here.

Assay [1] concerns the target T1, purified calf MAP2 (Bos taurus, UniProt A0A3Q1NAK9).
T1 construct: from tissue; host or cells: calf brain microtubules, heat denaturation and Sephacryl 300 gel filtration
As to the kind of experiment: Equilibrium binding of PREG [3H] to purified calf MAP2. Here is the method: The tau and MAP2 proteins are purified according to the protocol of Fellous et al. (12) by heat denaturation of the microtubules and gel filtration on a column, Sephacryl 300® being used instead of the Ultrogel ACA 34. The tau proteins are then Further purified according to the method of Lindwall and Cole (15).
Purified calf brain tubulin (90 μg/ml), MAP2 (45 μg/ml) or tau protein (25 μg/ml) is incubated with 100 nM of PREG [^3H], with or without a 1,000-fold excess of non-radioactive PREG.
The B/U values are reported in FIG. 5 as a function of B in nM, (-∘-) representing equilibrium binding of purified calf brain MAP2, and (-∘-) the equilibrium binding of purified calf brain MAP2 associated with purified calf brain tubulin (for the experimental details, see FIG. 1).

In assay [2] the test system is fetal rat brain neurons. Briefly: Immunocytochemistry of fetal rat brain neuron cultures. The assay is classed as cell-based. The conditions noted are these: 1 μM for 2 days. The procedure: Primary cultures of E17 fetal neurons are performed according to El-Etr et al. (16). Briefly, this method consists of spreading the dissociated cells (200,000 cells/cm^2) on glass plates covered with poly-1-ornithine and cultured in a completely defined medium in 5% CO2 at 37° C. The culture conditions used permit a practically pure neuron population to be obtained.
24 h after seeding, 1 micromolar pregnenolone (final ethanol concentration 0.01%), or the solvent alone, is added and cultures are continued for 2 days. The cells are fixed in 4% paraformaldehyde, then frozen at −80° C. The cells are duly rehydrated by passages of 5 min in ethanol at concentrations of 100, 90 and 70%. After 2 washings in PBS, for 5 min, the cells are incubated in PBS containing 3% of BSA and 0.1% of Triton X100®, at ambient temperature for 1 h.
After 4 washings in PBS, the cells are incubated at 37° C. for 1 h, then at 4° C. for about 14 h, in the presence of either anti-α-tubulin monoclonal antibody diluted {fraction (1/2,000)}, or anti-MAP2 monoclonal antibody diluted {fraction (1/1,000)}, or anti-double-cortin antiserum diluted 1/300.
After 3 washings in PBS, the secondary antibody is added at ambient temperature, for 45 minutes. […]

Assay [3] has as its target fetal rat brain cytosol binding sites of pregnenolone (Rattus norvegicus, UniProt P15146). Briefly: Equilibrium binding of PREG [3H] to fetal brain cytosol. The conditions noted are these: mean±standard error, n=3. The procedure: Fetal brains are collected, and are rinsed, after the meninges have been removed, with a homogenization buffer at 4° C. [10 mM of Tris-HCl, at pH 8.5, containing 1.5 mM of EDTA, 1 mM of dithiothreitol, 10% of glycerol, Complete®, (a mixture of protease inhibitors, Roche Molecular Biochemical); termed TEDG buffer].
The supernatant is then centrifuged at 100,000 g for 1 h at 4° C. The samples are used immediately for the trials, or are stored in liquid nitrogen until the moment of their use.
Just before the binding trial, each sample is purified with a dextran-carbon suspension, and 2 ml samples of supernatant (purified cytosol) are added to a series of tubes containing 1 to 500 nM PREG [^3H], with or without unlabeled steroid in 1,000-fold excess.
The tubes are incubated at 45° C. for 30 min. The separation of bound and free steroid was carried out on a Sephadex LH-20® (Amersham Pharmacia Biotech) mini-column.
The counting of the radioactivity in the flasks was performed in a liquid scintillation spectrometer with attenuation correction (Tri-Carb 2100 TR®, Packard).
The equilibrium binding data are analyzed with the Mac Ligand program, adapted from Munson and Rodbard (17). […]
The bound steroid is separated by gel filtration on Sephadex LH20® at 0-4° C. The binding constants are determined with the Mac Ligand program.

T1 sequence (A0A3Q1NAK9 1-1867): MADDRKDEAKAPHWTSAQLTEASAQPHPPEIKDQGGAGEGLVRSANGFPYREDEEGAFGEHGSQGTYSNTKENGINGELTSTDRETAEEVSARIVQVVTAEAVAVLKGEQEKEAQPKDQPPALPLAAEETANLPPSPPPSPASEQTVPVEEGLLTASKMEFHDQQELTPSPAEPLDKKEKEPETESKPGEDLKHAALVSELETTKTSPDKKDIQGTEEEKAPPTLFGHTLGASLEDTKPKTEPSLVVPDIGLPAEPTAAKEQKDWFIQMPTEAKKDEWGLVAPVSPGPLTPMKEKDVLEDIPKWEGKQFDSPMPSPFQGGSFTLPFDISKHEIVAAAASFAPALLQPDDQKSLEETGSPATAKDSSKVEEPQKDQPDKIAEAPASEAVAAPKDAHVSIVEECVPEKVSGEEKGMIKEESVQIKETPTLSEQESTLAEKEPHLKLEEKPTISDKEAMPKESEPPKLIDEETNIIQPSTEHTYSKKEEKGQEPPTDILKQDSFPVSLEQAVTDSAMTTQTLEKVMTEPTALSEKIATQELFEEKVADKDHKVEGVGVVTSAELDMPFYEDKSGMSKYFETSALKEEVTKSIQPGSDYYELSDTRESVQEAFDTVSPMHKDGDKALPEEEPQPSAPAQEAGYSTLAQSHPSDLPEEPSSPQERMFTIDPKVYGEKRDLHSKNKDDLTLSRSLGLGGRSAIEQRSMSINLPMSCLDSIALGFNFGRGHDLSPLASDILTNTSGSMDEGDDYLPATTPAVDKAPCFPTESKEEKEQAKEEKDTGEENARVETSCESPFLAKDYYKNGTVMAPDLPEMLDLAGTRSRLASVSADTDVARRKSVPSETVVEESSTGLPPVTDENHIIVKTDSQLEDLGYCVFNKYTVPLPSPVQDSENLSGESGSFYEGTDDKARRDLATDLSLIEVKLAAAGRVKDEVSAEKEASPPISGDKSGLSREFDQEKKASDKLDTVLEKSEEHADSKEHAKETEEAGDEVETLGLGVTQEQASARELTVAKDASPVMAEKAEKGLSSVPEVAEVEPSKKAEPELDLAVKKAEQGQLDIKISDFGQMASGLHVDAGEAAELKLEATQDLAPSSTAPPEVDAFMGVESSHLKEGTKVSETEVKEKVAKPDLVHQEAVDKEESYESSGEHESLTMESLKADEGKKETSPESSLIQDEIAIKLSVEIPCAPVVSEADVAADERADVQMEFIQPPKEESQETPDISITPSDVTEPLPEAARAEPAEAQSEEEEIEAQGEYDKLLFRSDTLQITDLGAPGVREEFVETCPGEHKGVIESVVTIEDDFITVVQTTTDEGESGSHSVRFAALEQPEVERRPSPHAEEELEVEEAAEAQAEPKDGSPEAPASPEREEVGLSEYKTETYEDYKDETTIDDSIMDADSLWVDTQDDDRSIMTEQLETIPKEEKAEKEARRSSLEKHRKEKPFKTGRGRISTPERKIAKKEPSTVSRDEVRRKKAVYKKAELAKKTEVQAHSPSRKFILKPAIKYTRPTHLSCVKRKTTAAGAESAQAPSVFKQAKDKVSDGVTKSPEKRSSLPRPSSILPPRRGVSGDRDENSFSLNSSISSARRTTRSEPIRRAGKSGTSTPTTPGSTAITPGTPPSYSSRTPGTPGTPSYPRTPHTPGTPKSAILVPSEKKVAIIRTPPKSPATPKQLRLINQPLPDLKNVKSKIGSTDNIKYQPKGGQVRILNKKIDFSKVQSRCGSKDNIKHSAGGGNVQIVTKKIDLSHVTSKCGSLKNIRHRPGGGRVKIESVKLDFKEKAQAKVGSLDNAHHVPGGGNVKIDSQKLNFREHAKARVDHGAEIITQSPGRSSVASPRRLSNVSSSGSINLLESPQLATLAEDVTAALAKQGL
Chain of fetal rat brain cytosol binding sites of pregnenolone (P15146 whole entry): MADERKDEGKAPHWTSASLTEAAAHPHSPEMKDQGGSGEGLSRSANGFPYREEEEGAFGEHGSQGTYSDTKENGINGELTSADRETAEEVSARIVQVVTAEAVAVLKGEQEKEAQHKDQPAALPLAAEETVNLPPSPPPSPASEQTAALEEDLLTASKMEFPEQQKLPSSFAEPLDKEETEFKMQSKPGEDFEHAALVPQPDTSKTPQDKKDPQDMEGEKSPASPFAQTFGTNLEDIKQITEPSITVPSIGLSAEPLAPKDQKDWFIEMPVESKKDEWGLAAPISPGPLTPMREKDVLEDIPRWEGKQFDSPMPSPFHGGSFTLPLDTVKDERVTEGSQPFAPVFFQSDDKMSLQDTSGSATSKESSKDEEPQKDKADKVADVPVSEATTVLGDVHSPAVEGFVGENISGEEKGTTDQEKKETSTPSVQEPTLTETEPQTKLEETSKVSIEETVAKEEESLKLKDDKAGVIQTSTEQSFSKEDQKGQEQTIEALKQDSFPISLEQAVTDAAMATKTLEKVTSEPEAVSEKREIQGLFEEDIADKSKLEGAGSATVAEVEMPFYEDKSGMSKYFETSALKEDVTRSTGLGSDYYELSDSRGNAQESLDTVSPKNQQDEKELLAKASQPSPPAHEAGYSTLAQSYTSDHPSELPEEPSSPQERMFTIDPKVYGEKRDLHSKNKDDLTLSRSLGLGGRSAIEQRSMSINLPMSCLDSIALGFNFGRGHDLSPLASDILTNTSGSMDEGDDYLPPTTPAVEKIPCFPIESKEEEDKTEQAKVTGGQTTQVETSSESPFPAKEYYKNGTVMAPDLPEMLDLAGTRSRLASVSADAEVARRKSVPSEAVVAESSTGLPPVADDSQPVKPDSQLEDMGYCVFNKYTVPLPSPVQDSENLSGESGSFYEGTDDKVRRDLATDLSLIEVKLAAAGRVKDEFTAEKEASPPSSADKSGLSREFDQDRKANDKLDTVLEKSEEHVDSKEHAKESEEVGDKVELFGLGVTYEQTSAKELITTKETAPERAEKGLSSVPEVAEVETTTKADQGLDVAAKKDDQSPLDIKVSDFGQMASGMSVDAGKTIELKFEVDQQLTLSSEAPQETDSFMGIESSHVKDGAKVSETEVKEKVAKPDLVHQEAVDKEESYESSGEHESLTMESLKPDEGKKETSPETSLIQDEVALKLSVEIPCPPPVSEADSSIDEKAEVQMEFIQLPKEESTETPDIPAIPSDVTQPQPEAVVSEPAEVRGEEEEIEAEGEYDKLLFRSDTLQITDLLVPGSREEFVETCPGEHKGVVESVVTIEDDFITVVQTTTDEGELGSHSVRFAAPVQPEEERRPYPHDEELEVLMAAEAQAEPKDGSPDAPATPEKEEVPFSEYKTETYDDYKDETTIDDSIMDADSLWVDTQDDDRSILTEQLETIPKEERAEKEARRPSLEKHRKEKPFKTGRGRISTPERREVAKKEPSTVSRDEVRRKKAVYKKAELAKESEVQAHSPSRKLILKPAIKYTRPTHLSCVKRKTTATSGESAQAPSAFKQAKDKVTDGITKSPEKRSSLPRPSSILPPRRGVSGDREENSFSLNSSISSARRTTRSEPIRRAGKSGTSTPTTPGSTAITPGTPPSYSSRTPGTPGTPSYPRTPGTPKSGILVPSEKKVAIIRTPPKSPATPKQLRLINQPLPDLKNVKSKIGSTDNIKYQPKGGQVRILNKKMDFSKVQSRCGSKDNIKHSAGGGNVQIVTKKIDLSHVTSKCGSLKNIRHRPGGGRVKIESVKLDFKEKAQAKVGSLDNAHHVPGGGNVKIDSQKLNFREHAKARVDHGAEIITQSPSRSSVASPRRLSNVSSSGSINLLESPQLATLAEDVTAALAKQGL

One may read the Kd as the equilibrium constant for the complex coming apart. Higher therefore signals lower affinity. Regarding `CC(=O)C1CCC2C3CC=C4CC(O)CCC4(C)C3CCC12C` (centres unmarked) [Pregnenolone], in assay [1], the Bmax is given as 16 pmol/mg of MAP2 and the equilibrium dissociation constant (Kd) amounted to 39.2 nM. In assay [2], the “immunolabeling of MAP2” value is “increases the immunolabeling of MAP2 of the cell bodies and induces its extension to close nerve cells”; the “staining with anti-α tubulin or anti-double-cortin antibodies” value was “does not show any difference”. In assay [3], the “maximum concentration of binding sites” value is given as 1.2±0.1 pmol/mg of protein.
